Source: ChEMBL document CHEMBL5034015, “Structure-Based Optimization of 3-Phenyl-N-(2-(3-phenylureido)ethyl)thiophene-2-sulfonamide Derivatives as Selective Mcl-1 Inhibitors” (J Med Chem, 2021)
Activity calls are given as the source filed them.

Experiments:
Bcl-2-like protein 1 [1] = molecular target: T1, Bcl-2-like protein 1 (Homo sapiens, UniProt Q07817); test: Inhibition of biotinylated Bim BH3 peptide binding to GST-tagged human Bcl-xl expressed in Escherichia coli BL21 (DE3) incubated for 1 hr by ELISA
T1 sequence (Q07817 whole entry): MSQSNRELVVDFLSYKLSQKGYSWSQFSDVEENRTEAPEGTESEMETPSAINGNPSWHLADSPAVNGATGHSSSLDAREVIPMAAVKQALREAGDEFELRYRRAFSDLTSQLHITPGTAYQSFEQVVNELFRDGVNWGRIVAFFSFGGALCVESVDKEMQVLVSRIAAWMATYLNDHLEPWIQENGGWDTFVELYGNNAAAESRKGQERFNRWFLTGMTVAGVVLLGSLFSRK

Bcl-2-like protein 1 [2] = molecular target: T1, Bcl-2-like protein 1; test: Inhibition of FITC-labeled BH3 peptide binding to Bcl-xl (unknown origin) expressed in Escherichia coli BL21 (DE3) incubated for 0.5 hrs by TR-FRET assay
RS4-11 [3] = test: Antitumor activity against human RS4-11 cells xenografted in NOD/SCID mouse assessed as reduction in tumor volume at 50 mg/kg, ip administered every 2 days for 22 days and measured every 3 days relative to control; format: functional; set-up: scale not given: the % may be the effect or the level left; conditions: time 22 day
RS4-11 [4] = test: Induction of apoptosis in human RS4-11 cells assessed as early apoptotic cells at 20 uM measured after 24 hrs by Annexin V/7-AAD and MitoSense Red staining based flow cytometry analysis relative to control (reference value: 3.75 %); format: functional
RS4-11 [5] = test: Antitumor activity against human RS4-11 cells xenografted in SCID mouse assessed as reduction in Ki-67 positive cells administered intraperitoneally for 19 days by immunohistochemical analysis; format: functional, cell-based; conditions: time 19.0 day
HeLa = test: cells; conditions: Homo sapiens, 48 h
Description: Cytotoxicity against human HeLa cells assessed as inhibition of cell growth incubated for 48 hrs by CCK8 assay

RS4-11 [6] = test: Induction of apoptosis in human RS4-11 cells assessed as increase in cleaved PARP expression incubated for 48 hrs by western blot analysis; format: functional, cell-based
MCF7 = test: Inhibition of Bcl-2/Bim interaction in human MCF7 cells assessed as disruption of Bcl-2/Bim complex at 10 uM measured after 24 hrs by co-immunoprecipitation based western blot analysis relative to control; format: cell-based
RS4-11 [7] = test: Induction of apoptosis in human RS4-11 cells assessed as late apoptotic cells at 20 uM measured after 24 hrs by Annexin V/7-AAD and MitoSense Red staining based flow cytometry analysis relative to control (reference value: 0.99 %); format: functional
RS4-11 [8] = test: Induction of apoptosis in human RS4-11 cells assessed as viable cells at 20 uM measured after 24 hrs by Annexin V/7-AAD and MitoSense Red staining based flow cytometry analysis relative to control (reference value: 94.15 %); format: functional; conditions: read-out: Activity
Bcl-2-like protein 1 [9] = molecular target: T1, Bcl-2-like protein 1; test: Binding affinity to full length human Bcl-xl expressed in Escherichia coli BL21 (DE3) at up to 100 uM preincubated for 30 mins followed by 5-FAM-QEDIIIINIARHLAQVGDSMD-RSIPPG tracer addition and measured after 20 mins by fluorescence polarization assay; conditions: dose microM <=100, time 50.0 min
[10] = Toxicity in NOD/SCID mouse xenografted with human RS4-11 cells assessed as reduction in body weight at 12.5 to 50 mg/kg, ip administered every 2 days for 22 days; format: organism-based; conditions: in vivo, 528 h, dose 12.5-50 mg/kg, time 22 day
[11] = molecular target: Induced myeloid leukemia cell differentiation protein Mcl-1 (Homo sapiens, UniProt Q07820); test: Binding affinity to full length human MCL1 expressed in Escherichia coli BL21 (DE3) assessed as inhibition constant preincubated for 30 mins followed by 5-FAM-QEDIIIINIARHLAQVGDSMD-RSIPPG tracer addition and measured after 20 mins by fluorescence polarization assay
Induced myeloid leukemia cell differentiation protein Mcl-1, sequence (Q07820 whole entry): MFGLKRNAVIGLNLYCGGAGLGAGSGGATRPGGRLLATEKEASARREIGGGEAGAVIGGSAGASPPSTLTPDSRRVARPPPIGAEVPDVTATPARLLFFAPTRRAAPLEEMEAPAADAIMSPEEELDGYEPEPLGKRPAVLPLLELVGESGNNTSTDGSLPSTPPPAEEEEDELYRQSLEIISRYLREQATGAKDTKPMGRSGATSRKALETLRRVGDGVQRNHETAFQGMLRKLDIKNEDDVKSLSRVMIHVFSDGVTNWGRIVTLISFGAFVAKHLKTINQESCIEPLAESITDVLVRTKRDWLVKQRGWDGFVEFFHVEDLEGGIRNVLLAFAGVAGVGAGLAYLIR

HL-60 = test: cells; conditions: Homo sapiens, HL-60, 48 h
Description: Cytotoxicity against human HL-60 cells assessed as inhibition of cell growth incubated for 48 hrs by CCK8 assay

RS4-11 [12] = test: Induction of apoptosis in human RS4-11 cells assessed as increase in cleaved caspase 9 expression incubated for 48 hrs by western blot analysis; format: functional, cell-based
RS4-11 [13] = test: Antitumor activity against human RS4-11 cells xenografted in NODSCID mouse assessed as inhibition of tumor growth at 12.5 mg/kg, ip administered every 2 days for 22 days and measured every 3 days relative to control; format: functional; set-up: scale not given: the % may be the effect or the level left; conditions: time 22 day
RS4-11 [14] = test: Induction of apoptosis in human RS4-11 cells assessed as necrotic cells at 20 uM measured after 24 hrs by Annexin V/7-AAD and MitoSense Red staining based flow cytometry analysis relative to control (reference value: 1.11 %); format: functional
[15] = molecular target: Induced myeloid leukemia cell differentiation protein Mcl-1/Bcl-2-like protein 11 (Homo sapiens) (UniProt Q07820+O43521); test: Inhibition of MCL1/Bim interaction in human MCF7 cells assessed as disruption of MCL1/Bim complex at 10 uM measured after 24 hrs by co-immunoprecipitation based western blot analysis relative to control; format: cell-based
Induced myeloid leukemia cell differentiation protein Mcl-1/Bcl-2-like protein 11 (Homo sapiens), sequence (O43521 whole entry, looked up): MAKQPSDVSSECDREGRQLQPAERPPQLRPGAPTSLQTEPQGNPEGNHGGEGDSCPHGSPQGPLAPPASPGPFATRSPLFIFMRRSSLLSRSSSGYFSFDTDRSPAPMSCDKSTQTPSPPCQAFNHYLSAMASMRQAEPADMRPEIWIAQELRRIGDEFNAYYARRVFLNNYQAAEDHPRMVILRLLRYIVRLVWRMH
Induced myeloid leukemia cell differentiation protein Mcl-1/Bcl-2-like protein 11 (Homo sapiens), sequence (Q07820 whole entry, looked up): as the sequence (Q07820 whole entry) above

RS4-11 [16] = test: Antitumor activity against human RS4-11 cells xenografted in NOD/SCID mouse assessed as inhibition of tumor growth at 25 mg/kg, ip administered every 2 days for 22 days and measured every 3 days relative to control; format: functional; set-up: scale not given: the % may be the effect or the level left; conditions: time 22 day
RS4-11 [17] = test: cells; conditions: Homo sapiens, RS4-11, 48 h
Description: Cytotoxicity against human RS4-11 cells assessed as inhibition of cell growth incubated for 48 hrs by CCK8 assay

RS4-11 [18] = test: Induction of apoptosis in human RS4-11 cells assessed as increase in cleaved caspase 3 expression incubated for 48 hrs by western blot analysis; format: functional, cell-based
[19] = molecular target: Apoptosis regulator Bcl-2 (Homo sapiens, UniProt P10415); test: Binding affinity to full length human Bcl-2 expressed in Escherichia coli BL21 (DE3) at up to 100 uM preincubated for 30 mins followed by 5-FAM-QEDIIIINIARHLAQVGDSMD-RSIPPG tracer addition and measured after 20 mins by fluorescence polarization assay; conditions: dose microM <=100, time 50.0 min
Apoptosis regulator Bcl-2, sequence (P10415 whole entry): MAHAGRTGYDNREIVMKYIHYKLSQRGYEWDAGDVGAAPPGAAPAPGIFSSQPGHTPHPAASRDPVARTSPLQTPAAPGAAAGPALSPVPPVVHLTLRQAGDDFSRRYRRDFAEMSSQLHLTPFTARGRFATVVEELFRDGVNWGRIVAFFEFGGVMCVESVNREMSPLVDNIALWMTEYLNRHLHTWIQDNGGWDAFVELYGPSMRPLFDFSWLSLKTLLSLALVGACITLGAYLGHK

HEK-293T = test: Cytotoxicity against HEK293T cells assessed as reduction in cell viability incubated for 48 hrs by CCK8 assay; conditions: Homo sapiens

## O=C(c1ccccc1O)c1[nH]c(Cl)c(Cl)c1-n1c(C(=O)c2ccccc2O)cc(Cl)c1Cl
Bcl-2-like protein 1 [1]
  IC50: > 80 µM

## Cc1cc(OCCCc2c3n(c4c(-c5c(C)nn(C)c5C)c(Cl)ccc24)CCCN(c2cc(C(=O)O)c4ccn(C)c4c2)C3=O)cc(C)c1Cl
Bcl-2-like protein 1 [2]
  Ki: > 10 µM

## COc1ccc(Oc2cc(C)ccc2-c2ccsc2S(=O)(=O)NCCNC(=O)Nc2cc(C(F)(F)F)cc(C(F)(F)F)c2)cc1OC
RS4-11 [3]
  Activity: 75%
RS4-11 [4]
  Activity: 4.15%
RS4-11 [5]
  Activity: Dose-Dependent Effect
HeLa
  IC50: 10.2 µM
RS4-11 [6]
  Activity: Dose-Dependent Effect
MCF7
  inhibition: inactive
RS4-11 [7]
  Activity: 94.21%
RS4-11 [8]
  viability at 20 µM: 1.39%
Bcl-2-like protein 1 [9]
  Activity: inactive
[10]
  Activity: Non-Toxic
[11]
  Ki: 4.9 µM
HL-60
  IC50: 5.3 µM
RS4-11 [12]
  Activity: Dose-Dependent Effect
RS4-11 [13]
  Activity: >60%
RS4-11 [14]
  Activity: 0.24%
[15]
  inhibition: 30%
RS4-11 [16]
  Activity: >60%
RS4-11 [17]
  IC50: 5.6 µM
RS4-11 [18]
  Activity: Dose-Dependent Effect
[19]
  Activity: inactive
HEK-293T
  IC50: 9 µM
